Reference: ChEMBL document CHEMBL1149459, “Partial structures of ketoconazole as modulators of the large conductance calcium-activated potassium channel (BK(Ca))” (Bioorg Med Chem Lett, 2006)

Assays:
[1] = target: T1, Large conductance calcium-activated potassium channel (Bos taurus) (UniProt Q28204+Q28067); assay: Inhibition of large conductance calcium-activated potassium channel in bovine smooth muscle cells at 30 uM; type: functional, cell-based
[2] = target: T1, Large conductance calcium-activated potassium channel (Bos taurus); assay: Inhibition of large conductance calcium-activated potassium channel in bovine smooth muscle cells at 10 uM; type: functional, cell-based

inhibition [1] | inhibition [2] | SMILES
40% |  | O=C(OC[C@H]1CO[C@](Cn2ccnc2)(c2ccc(Cl)cc2Cl)O1)c1ccccc1
73% |  | Clc1ccc([C@@]2(Cn3ccnc3)OC[C@H](COc3ccccc3)O2)c(Cl)c1
95% |  | Clc1ccc([C@@]2(Cn3ccnc3)OC[C@H](COc3ccc(Br)cc3)O2)c(Cl)c1
2% |  | Cc1ccc(S(=O)(=O)OC[C@H]2CO[C@](Cn3ccnc3)(c3ccc(Cl)cc3Cl)O2)cc1
 | 80% | Clc1ccc([C@@]2(Cn3ccnc3)OC[C@H](COc3ccc(N4CCCCC4)cc3)O2)c(Cl)c1
